Test system: MIA PaCa-2 cells
Experiment: DNA microarray analysis (Affymetrix Human PrimeView)
Type: cell-based

In the case of `C=C(CC[C@@H](C(=O)O)[C@H]1[C@H](O)C[C@@]2(C)C3=C(CC[C@]12C)[C@@]1(C)CC[C@H](OC(C)=O)C(C)(C)[C@@H]1CC3)C(C)C` [PA, Pachymic acid], the “Fold-Change (MiaPaca-2 * PA vs. MiaPaca-2 * control), HSPA1B” value (probeset 11729120_x_at) is reported as 1.90, the “Mean (MiaPaca-2 * PA), HSPA1B” value (probeset 11729120_x_at) is reported as 11.15 and the “Fold-Change (MiaPaca-2 * PA vs. MiaPaca-2 * control), ADAMTS4” value (probeset 11730923_x_at) is reported as 2.20. For the same molecule, the “Mean (MiaPaca-2 * PA), ADAMTS4” value (probeset 11730923_x_at) was 8.77, the “Fold-Change (MiaPaca-2 * PA vs. MiaPaca-2 * control), RCAN1” value (probeset 11733797_a_at) was 1.68 and the “Mean (MiaPaca-2 * PA), RCAN1” value (probeset 11733797_a_at) was 9.17. For the same molecule, the “Fold-Change (MiaPaca-2 * PA vs. MiaPaca-2 * control), SOCS2” value (probeset 11735148_a_at) was 1.78, the “Mean (MiaPaca-2 * PA), SOCS2” value (probeset 11735148_a_at) was 6.08 and the “Fold-Change (MiaPaca-2 * PA vs. MiaPaca-2 * control), C17orf91” value (probeset 11736304_a_at) was 1.70. For the same molecule, the “Mean (MiaPaca-2 * PA), C17orf91” value (probeset 11736304_a_at) was 6.00, the “Fold-Change (MiaPaca-2 * PA vs. MiaPaca-2 * control), C17orf91” value (probeset 11736305_x_at) was 1.71 and the “Mean (MiaPaca-2 * PA), C17orf91” value (probeset 11736305_x_at) was 6.44. For the same molecule, the “Fold-Change (MiaPaca-2 * PA vs. MiaPaca-2 * control), SERPINB8” value (probeset 11737922_a_at) was 2.08, the “Mean (MiaPaca-2 * PA), SERPINB8” value (probeset 11737922_a_at) was 8.90 and the “Fold-Change (MiaPaca-2 * PA vs. MiaPaca-2 * control), FLJ36031” value (probeset 11739443_a_at) was 1.69. For the same molecule, the “Mean (MiaPaca-2 * PA), FLJ36031” value (probeset 11739443_a_at) was 6.38, the “Fold-Change (MiaPaca-2 * PA vs. MiaPaca-2 * control), TNFRSF9” value (probeset 11740393_at) was 2.27 and the “Mean (MiaPaca-2 * PA), TNFRSF9” value (probeset 11740393_at) was 8.01. The “Fold-Change (MiaPaca-2 * PA vs. MiaPaca-2 * control), GBP3” value (probeset 11741911_a_at) was 1.86, the “Mean (MiaPaca-2 * PA), GBP3” value (probeset 11741911_a_at) was 6.08 and the “Fold-Change (MiaPaca-2 * PA vs. MiaPaca-2 * control), CXCL2” value (probeset 11744127_at) was 2.45. For the same molecule, the “Mean (MiaPaca-2 * PA), CXCL2” value (probeset 11744127_at) was 10.98, the “Fold-Change (MiaPaca-2 * PA vs. MiaPaca-2 * control), CXCL2” value (probeset 11744128_x_at) was 2.30 and the “Mean (MiaPaca-2 * PA), CXCL2” value (probeset 11744128_x_at) was 11.01. For the same molecule, the “Fold-Change (MiaPaca-2 * PA vs. MiaPaca-2 * control), HSPA1A” value (probeset 11744413_x_at) was 2.45, the “Mean (MiaPaca-2 * PA), HSPA1A” value (probeset 11744413_x_at) was 10.47 and the “Fold-Change (MiaPaca-2 * PA vs. MiaPaca-2 * control), SAMD4A” value (probeset 11745209_a_at) was 1.79. For the same molecule, the “Mean (MiaPaca-2 * PA), SAMD4A” value (probeset 11745209_a_at) was 6.54, the “Fold-Change (MiaPaca-2 * PA vs. MiaPaca-2 * control), SERPINE1” value (probeset 11746856_a_at) was 1.78 and the “Mean (MiaPaca-2 * PA), SERPINE1” value (probeset 11746856_a_at) was 7.81. For the same molecule, the “Fold-Change (MiaPaca-2 * PA vs. MiaPaca-2 * control), UPP1” value (probeset 11747820_x_at) was 1.93, the “Mean (MiaPaca-2 * PA), UPP1” value (probeset 11747820_x_at) was 8.45 and the “Fold-Change (MiaPaca-2 * PA vs. MiaPaca-2 * control), SERPINB8” value (probeset 11748180_a_at) was 2.13. For the same molecule, the “Mean (MiaPaca-2 * PA), SERPINB8” value (probeset 11748180_a_at) was 10.10, the “Fold-Change (MiaPaca-2 * PA vs. MiaPaca-2 * control), UPP1” value (probeset 11748775_a_at) was 1.75 and the “Mean (MiaPaca-2 * PA), UPP1” value (probeset 11748775_a_at) was 10.33. The “Fold-Change (MiaPaca-2 * PA vs. MiaPaca-2 * control), FOS” value (probeset 11749291_a_at) was 1.74, the “Mean (MiaPaca-2 * PA), FOS” value (probeset 11749291_a_at) was 6.87 and the “Fold-Change (MiaPaca-2 * PA vs. MiaPaca-2 * control), GBP1” value (probeset 11749773_x_at) was 1.92. The “Mean (MiaPaca-2 * PA), GBP1” value (probeset 11749773_x_at) was 5.41, the “Fold-Change (MiaPaca-2 * PA vs. MiaPaca-2 * control), CYR61” value (probeset 11749905_a_at) was 2.32 and the “Mean (MiaPaca-2 * PA), CYR61” value (probeset 11749905_a_at) was 9.84. The “Fold-Change (MiaPaca-2 * PA vs. MiaPaca-2 * control), HSPA1A /// HSPA1B” value (probeset 11750411_x_at) was 2.09, the “Mean (MiaPaca-2 * PA), HSPA1A /// HSPA1B” value (probeset 11750411_x_at) was 10.73 and the “Fold-Change (MiaPaca-2 * PA vs. MiaPaca-2 * control), MIR17HG” value (probeset 11752442_a_at) was 1.88. The “Mean (MiaPaca-2 * PA), MIR17HG” value (probeset 11752442_a_at) was 6.16, the “Fold-Change (MiaPaca-2 * PA vs. MiaPaca-2 * control), GBP1” value (probeset 11752931_x_at) was 1.83 and the “Mean (MiaPaca-2 * PA), GBP1” value (probeset 11752931_x_at) was 5.47. For the same molecule, the “Fold-Change (MiaPaca-2 * PA vs. MiaPaca-2 * control), EGR1” value (probeset 11752940_a_at) was 1.69, the “Mean (MiaPaca-2 * PA), EGR1” value (probeset 11752940_a_at) was 10.59 and the “Fold-Change (MiaPaca-2 * PA vs. MiaPaca-2 * control), DUSP1” value (probeset 11752993_a_at) was 1.78. For the same molecule, the “Mean (MiaPaca-2 * PA), DUSP1” value (probeset 11752993_a_at) was 7.26, the “Fold-Change (MiaPaca-2 * PA vs. MiaPaca-2 * control), TNFSF4” value (probeset 11753073_a_at) was 1.71 and the “Mean (MiaPaca-2 * PA), TNFSF4” value (probeset 11753073_a_at) was 5.89. The “Fold-Change (MiaPaca-2 * PA vs. MiaPaca-2 * control), SLC3A2” value (probeset 11753435_x_at) was 1.69, the “Mean (MiaPaca-2 * PA), SLC3A2” value (probeset 11753435_x_at) was 8.06 and the “Fold-Change (MiaPaca-2 * PA vs. MiaPaca-2 * control), IL8” value (probeset 11754026_a_at) was 2.84. The “Mean (MiaPaca-2 * PA), IL8” value (probeset 11754026_a_at) was 11.16, the “Fold-Change (MiaPaca-2 * PA vs. MiaPaca-2 * control), CXCL1” value (probeset 11754114_a_at) was 2.46 and the “Mean (MiaPaca-2 * PA), CXCL1” value (probeset 11754114_a_at) was 11.01. For the same molecule, the “Fold-Change (MiaPaca-2 * PA vs. MiaPaca-2 * control), HBEGF” value (probeset 11755981_a_at) was 1.90, the “Mean (MiaPaca-2 * PA), HBEGF” value (probeset 11755981_a_at) was 4.80 and the “Fold-Change (MiaPaca-2 * PA vs. MiaPaca-2 * control), HSPA6 /// HSPA7” value (probeset 11757367_s_at) was 19.93. For the same molecule, the “Mean (MiaPaca-2 * PA), HSPA6 /// HSPA7” value (probeset 11757367_s_at) was 9.17, the “Fold-Change (MiaPaca-2 * PA vs. MiaPaca-2 * control), NFKBIZ” value (probeset 11757513_at) was 2.08 and the “Mean (MiaPaca-2 * PA), NFKBIZ” value (probeset 11757513_at) was 10.08. For the same molecule, the “Fold-Change (MiaPaca-2 * PA vs. MiaPaca-2 * control), DDIT3” value (probeset 11758347_s_at) was 1.70, the “Mean (MiaPaca-2 * PA), DDIT3” value (probeset 11758347_s_at) was 7.10 and the “Fold-Change (MiaPaca-2 * PA vs. MiaPaca-2 * control), MIR17HG” value (probeset 11758429_s_at) was 1.80. For the same molecule, the “Mean (MiaPaca-2 * PA), MIR17HG” value (probeset 11758429_s_at) was 4.78, the “Fold-Change (MiaPaca-2 * PA vs. MiaPaca-2 * control), TNFSF18” value (probeset 11759254_at) was 1.84 and the “Mean (MiaPaca-2 * PA), TNFSF18” value (probeset 11759254_at) was 8.90. For the same molecule, the “Fold-Change (MiaPaca-2 * PA vs. MiaPaca-2 * control), NCRNA00275” value (probeset 11759550_at) was 1.82, the “Mean (MiaPaca-2 * PA), NCRNA00275” value (probeset 11759550_at) was 7.61 and the “Fold-Change (MiaPaca-2 * PA vs. MiaPaca-2 * control), SAT1” value (probeset 11760200_a_at) was 1.75. The “Mean (MiaPaca-2 * PA), SAT1” value (probeset 11760200_a_at) was 6.19, the “Fold-Change (MiaPaca-2 * PA vs. MiaPaca-2 * control), EBNA1BP2” value (probeset 11760295_at) was 1.73 and the “Mean (MiaPaca-2 * PA), EBNA1BP2” value (probeset 11760295_at) was 4.62. For the same molecule, the “Fold-Change (MiaPaca-2 * PA vs. MiaPaca-2 * control), GRAMD1B” value (probeset 11762010_a_at) was 1.80, the “Mean (MiaPaca-2 * PA), GRAMD1B” value (probeset 11762010_a_at) was 7.49 and the “Fold-Change (MiaPaca-2 * PA vs. MiaPaca-2 * control), CASP1” value (probeset 11763186_at) was 1.70. The “Mean (MiaPaca-2 * PA), CASP1” value (probeset 11763186_at) was 5.56, the “Fold-Change (MiaPaca-2 * PA vs. MiaPaca-2 * control), IL8” value (probeset 11763226_x_at) was 2.95 and the “Mean (MiaPaca-2 * PA), IL8” value (probeset 11763226_x_at) was 11.12. The “Fold-Change (MiaPaca-2 * PA vs. MiaPaca-2 * control), CXCL1 /// CXCL2” value (probeset 11763250_x_at) was 2.26, the “Mean (MiaPaca-2 * PA), CXCL1 /// CXCL2” value (probeset 11763250_x_at) was 10.74 and the “Fold-Change (MiaPaca-2 * PA vs. MiaPaca-2 * control), GRAMD1B” value (probeset 11763323_x_at) was 1.71. The “Mean (MiaPaca-2 * PA), GRAMD1B” value (probeset 11763323_x_at) was 6.75.
